Assay results reported in PubChem BioAssay (NCI).
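All cell lines were grown in 96-well plates and treated with compound for 48 hours. GI50 = concentration required for 50% inhibition of growth. The concentration for full growth arrest is given as TGI.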

How the values were obtained:
Test in all cases: NCI tumour cell line growth inhibition, 48 h
A549 NSCLC = test system: A549 NSCLC
HOP-62 NSCLC = test system: HOP-62 NSCLC
NCI-H23 lung = test system: NCI-H23 lung
NCI-H522 lung = test system: NCI-H522 lung
OVCAR-8 ovarian = test system: OVCAR-8 ovarian
SK-MEL-28 melanoma = test system: SK-MEL-28 melanoma
SNB-19 CNS = test system: SNB-19 CNS
SNB-75 CNS = test system: SNB-75 CNS
MOLT-4 leukemia = test system: MOLT-4 leukemia
SR leukemia = test system: SR leukemia

Structure (SMILES) | TGI (A549 NSCLC) | GI50 (HOP-62 NSCLC) | TGI (HOP-62 NSCLC) | TGI (NCI-H23 lung) | GI50 (NCI-H522 lung) | TGI (NCI-H522 lung) | GI50 (OVCAR-8 ovarian) | TGI (OVCAR-8 ovarian) | GI50 (SK-MEL-28 melanoma) | TGI (SK-MEL-28 melanoma) | GI50 (SNB-19 CNS) | TGI (SNB-19 CNS) | GI50 (SNB-75 CNS) | TGI (SNB-75 CNS) | TGI (MOLT-4 leukemia) | TGI (SR leukemia) | GI50 (A549 NSCLC) | GI50 (MOLT-4 leukemia) | GI50 (NCI-H23 lung) | GI50 (SR leukemia)
O=C1c2c(O)cc(O)cc2OC(c2ccc(O)cc2O)C1O (configuration not stated) | > 100 µM | > 100 µM | > 100 µM | > 100 µM | > 100 µM | > 100 µM | > 100 µM | > 100 µM | > 100 µM | > 100 µM | > 100 µM | > 100 µM | > 100 µM | > 100 µM | – | – | – | – | – | –
CCc1nc(N)nc(N)c1-c1ccc(NCCc2ccccc2)c([N+](=O)[O-])c1 | 21.8 µM | – | > 46.9 µM | > 54.1 µM | – | – | – | 89 µM | – | 28.2 µM | – | > 63.1 µM | – | 47.3 µM | 33.3 µM | 24 µM | – | – | – | –
CCC(C(=O)[O-])C(=O)[O-].CCC(C(=O)[O-])C(=O)[O-].N.N.NCCCCCCN.[Pt+4].[Pt+4] | 24.1 µM | 20.4 µM | 50 µM | 24.5 µM | – | – | 11.5 µM | 28.1 µM | 6.58 µM | 14.6 µM | 10.3 µM | 21.9 µM | 9.85 µM | 20.4 µM | 2.94 µM | 35.4 µM | 10.8 µM | 1.18 µM | 9.84 µM | 6.11 µM
O=C(CCCCCCSc1nc(-c2ccc(Cl)cc2)cc(-c2ccc(Cl)cc2)n1)NO | 5.1 µM | 1.52 µM | 6.47 µM | 4.33 µM | 0.97 µM | 4.45 µM | 1.43 µM | 8.1 µM | 2.04 µM | > 50 µM | 1.97 µM | 20.4 µM | 1.32 µM | 15.6 µM | > 50 µM | – | 1.42 µM | 1.5 µM | 1.32 µM | –
Cc1cc(C)c(S(=O)(=O)ONC(=O)OC(C)(C)C)c(C)c1 | > 100 µM | – | > 100 µM | > 100 µM | – | > 100 µM | – | > 100 µM | – | > 100 µM | – | > 100 µM | – | > 100 µM | > 100 µM | – | – | – | – | –
COc1cc([C@@H]2c3cc4c(cc3[C@@H](NC(=O)c3cccc(F)c3)C3COC(=O)[C@@H]32)OCO4)cc(OC)c1O (some centres not stated) | 2.62 µM | – | 1.94 µM | 3.18 µM | – | 3.97 µM | – | 16.1 µM | – | 56.5 µM | – | 14.2 µM | – | 5.24 µM | 1.06 µM | – | – | – | – | –
CCOC(=O)Nc1ccc(-c2nc(-c3cccc(OC)c3)c(-c3ccnc(Br)c3)[nH]2)cc1 | > 100 µM | – | – | 4.75 µM | 2.73 µM | 9.16 µM | 2.98 µM | > 100 µM | 2.8 µM | > 100 µM | 2.96 µM | > 100 µM | 2.14 µM | > 100 µM | > 100 µM | > 100 µM | 3.07 µM | 2.21 µM | 2 µM | 2.88 µM
Nc1nnc(Cn2c(-c3ccccc3)nc3ccc(Br)cc3c2=O)s1 | > 100 µM | 36.8 µM | > 100 µM | > 100 µM | 38.1 µM | > 100 µM | 1.25 µM | 41 µM | > 100 µM | > 100 µM | > 100 µM | > 100 µM | > 100 µM | > 100 µM | 48.8 µM | – | 25 µM | 17.7 µM | 40.8 µM | –
O=C(CC(=O)C1CCOC1=O)C(=O)Nc1ccc(Cl)cc1Cl (configuration not stated) | > 100 µM | – | > 100 µM | > 100 µM | – | > 100 µM | – | > 100 µM | – | > 100 µM | – | > 100 µM | – | > 100 µM | – | – | – | – | – | –
NC(=O)/C=C/NC(=O)/C=N\O | – | – | > 100 µM | – | – | > 100 µM | – | > 100 µM | – | > 100 µM | – | > 100 µM | – | > 100 µM | > 100 µM | > 100 µM | – | – | – | –
COc1ccc2c(c1)[n+](=O)c(C(=O)/C=C/c1cc(OC)c(OC)c(OC)c1)c(C)n2[O-] | > 100 µM | 18.7 µM | 37.2 µM | – | 19 µM | 56.6 µM | 6.03 µM | 30.3 µM | > 100 µM | > 100 µM | 14.1 µM | 36.5 µM | 12 µM | 34.7 µM | > 100 µM | > 100 µM | 34.9 µM | > 100 µM | – | 58.4 µM
COc1ccc(-c2csc(-c3cc(Cl)cc(Cl)c3Cl)n2)cc1 | > 100 µM | > 100 µM | > 100 µM | – | > 100 µM | > 100 µM | 48.4 µM | > 100 µM | > 100 µM | > 100 µM | 50.3 µM | > 100 µM | 40 µM | > 100 µM | > 100 µM | 32.4 µM | 68.3 µM | 57 µM | – | 7.05 µM
OC(c1ccccn1)C1CNc2ccccc21 (configuration not stated) | > 100 µM | – | > 100 µM | > 100 µM | – | > 100 µM | – | > 100 µM | – | > 100 µM | – | > 100 µM | – | > 100 µM | > 100 µM | – | – | – | – | –
O=C1C(Cl)=C(Nc2cccc(O)c2)C(=O)N1c1ccccc1Cl | > 100 µM | 32.9 µM | > 100 µM | > 100 µM | 17.3 µM | 41.8 µM | 32.1 µM | > 100 µM | 58 µM | > 100 µM | 40.6 µM | > 100 µM | – | – | 38.1 µM | 40.2 µM | 50 µM | 15.8 µM | 32.2 µM | 7 µM
CC(=O)NNc1nc(C)c(C(/C=C/c2ccc(Cl)cc2)=N/NC(=O)C[N+](C)(C)C)s1 | > 100 µM | – | – | > 100 µM | – | > 100 µM | – | – | – | > 100 µM | – | > 100 µM | – | > 100 µM | > 100 µM | – | – | – | – | –
COC(=O)c1ccc(Cc2ccc(C(=O)OC)o2)o1 | > 378 µM | – | > 378 µM | > 378 µM | – | > 378 µM | – | > 378 µM | – | > 378 µM | – | > 378 µM | – | – | > 378 µM | > 378 µM | – | – | – | –
CCCCCCCCCCCCN(O)C(=O)c1ccccc1 | > 100 µM | – | – | 52.2 µM | – | > 100 µM | – | 74.3 µM | – | > 100 µM | – | > 100 µM | – | 82.7 µM | > 100 µM | > 100 µM | – | – | – | –
